Results taken from patent US20190070229A1, “Composition comprising a lactic acid bacteria for preventing and treating vaginosis and the use thereof” (HAUDONGCHUN CO., LTD, priority 2016, published 2019).

Legend:
Conditions in all cases: MRS medium, 37° C.; A50, K50, S50 50, C34 34, T15 15, G20 20, R25 25 microgram/ml
BSS (Streptococcus sp) = assay: Antibiotic susceptibility of lactic acid bacteria strains; assay type: cell-based; note: key: +++: being normally grown without the effect of antibiotic; −: being not grown caused by the effect of antibiotic
Protocol: (§1) In order to determine the antibiotic resistance of the lactic acid bacteria strains reproducing abundant lactic acids, i.e., Lactobacillus acidophilus (KCTC No. 3164), Bifidobacterium longum sub sp. longum (KCTC No. 3128) etc, the bacteria was inoculated into MRS medium (10 g of Protease peptone, 10 g of beef extract, 5 g of yeast extract, 20 g of D-glucose, 1 ml of Tween 80, 2 g of K2HPO4, 5 g of sodium acetate, 2 g of diammonium hydrogencitrate, 0.2 g of MgSO47H20, 0.2 g of MnSO4H20, 1 L of distilled water, pH 6.2-6.5) and performed to shaking incubation at 37° C. at the speed of 150 rpm.

[1] = test system: BBL (Bifidobacterium longum subsp. Longum); assay: as above; assay type: cell-based; note: key: +++: being normally grown without the effect of antibiotic; −: being not grown caused by the effect of antibiotic
Protocol: as §1

BBC (Bacillus cereus) = assay: as above; assay type: cell-based
Protocol: as §1

[2] = test system: BLD (Lactobacillus delbrueckii subsp. bulgaricus); assay: as above; assay type: cell-based; note: key: +++: being normally grown without the effect of antibiotic; −: being not grown caused by the effect of antibiotic
Protocol: as §1

[3] = test system: BLC (Lactobacillus casei); assay: as above; assay type: cell-based
Protocol: as §1

[4] = test system: BBA (Bifidobacterium adolescentis); assay: as above; assay type: cell-based
Protocol: as §1

[5] = test system: BBC2 (Bifidobacterium catenulatum); assay: as above; assay type: cell-based
Protocol: as §1

[6] = test system: BLB (Lactobacillus brevis); assay: as above; assay type: cell-based
Protocol: as §1

[7] = test system: BLA (Lactobacillus acidophilus); assay: as above; assay type: cell-based
Protocol: as §1

[8] = test system: BBB2 (Bifidobacterium breve); design: key to the marks not given beside the values
[9] = test system: BBB1 (Bifidobacterium bifidum); design: key to the marks not given beside the values
Throughout, for Antibiotic susceptibility (growth of BBC with antibiotic): key: +++: being normally grown without the effect of antibiotic; −: being not grown caused by the effect of antibiotic.

With `CC1(C)S[C@@H]2[C@H](NC(=O)[C@H](N)c3ccccc3)C(=O)N2[C@H]1C(=O)O` [Ampicillin, ampicillin] the “Antibiotic susceptibility (growth of BSS with antibiotic)” value (BSS (Streptococcus sp)) was “−”, the “Antibiotic susceptibility (growth of BBL with antibiotic)” value [1] was “−” and the “Antibiotic susceptibility (growth of BBC with antibiotic)” value (BBC (Bacillus cereus)) was “−”. For the same compound, the “Antibiotic susceptibility (growth of BLD with antibiotic)” value [2] was “−”, the “Antibiotic susceptibility (growth of BLC with antibiotic)” value [3] was “−” and the “Antibiotic susceptibility (growth of BBA with antibiotic)” value [4] was “−”. For the same compound, the “Antibiotic susceptibility (growth of BBC2 with antibiotic)” value [5] was “−” and the “Antibiotic susceptibility (growth of BLB with antibiotic)” value [6] was “−”.

`O=C(N[C@H](CO)[C@H](O)c1ccc([N+](=O)[O-])cc1)C(Cl)Cl` [Chloramphenicol, chloramphenicol] was tested, and the “Antibiotic susceptibility (growth of BSS with antibiotic)” value (BSS (Streptococcus sp)) was “−”, the “Antibiotic susceptibility (growth of BBL with antibiotic)” value [1] was “−” and the “Antibiotic susceptibility (growth of BBC with antibiotic)” value (BBC (Bacillus cereus)) was “−”. For the same compound, the “Antibiotic susceptibility (growth of BLD with antibiotic)” value [2] was “−”, the “Antibiotic susceptibility (growth of BLA with antibiotic)” value [7] was “−” and the “Antibiotic susceptibility (growth of BLC with antibiotic)” value [3] was “−”. For the same compound, the “Antibiotic susceptibility (growth of BBA with antibiotic)” value [4] was “−”, the “Antibiotic susceptibility (growth of BBC2 with antibiotic)” value [5] was “−” and the “Antibiotic susceptibility (growth of BLB with antibiotic)” value [6] was “−”.

With `NC[C@H]1O[C@H](O[C@H]2[C@H](O)[C@@H](O[C@H]3O[C@H](CO)[C@@H](O)[C@H](N)[C@H]3O)[C@H](N)C[C@@H]2N)[C@H](O)[C@@H](O)[C@@H]1O` [Kanamycin, kanamycin] the “Antibiotic susceptibility (growth of BSS with antibiotic)” value (BSS (Streptococcus sp)) was “+++”, the “Antibiotic susceptibility (growth of BBL with antibiotic)” value [1] was “+++” and the “Antibiotic susceptibility (growth of BLD with antibiotic)” value [2] was “+++”. The “Antibiotic susceptibility (growth of BLA with antibiotic)” value [7] was “+++”, the “Antibiotic susceptibility (growth of BLC with antibiotic)” value [3] was “+++” and the “Antibiotic susceptibility (growth of BLB with antibiotic)” value [6] was “+++”. For the same compound, the “Antibiotic susceptibility (growth of BBB2 with antibiotic)” value [8] was “+++” and the “Antibiotic susceptibility (growth of BBB1 with antibiotic)” value [9] was “+++”.

For `CO[C@H]1/C=C/O[C@@]2(C)Oc3c(C)c(O)c4c(O)c(c(/C=N/N5CCN(C)CC5)c(O)c4c3C2=O)NC(=O)/C(C)=C\C=C\[C@H](C)[C@H](O)[C@@H](C)[C@@H](O)[C@@H](C)[C@H](OC(C)=O)[C@@H]1C` [Ripampicin, rifampicin], the “Antibiotic susceptibility (growth of BSS with antibiotic)” value (BSS (Streptococcus sp)) was “−”, the “Antibiotic susceptibility (growth of BBL with antibiotic)” value [1] was “−” and the “Antibiotic susceptibility (growth of BBC with antibiotic)” value (BBC (Bacillus cereus)) was “−”. For the same compound, the “Antibiotic susceptibility (growth of BLD with antibiotic)” value [2] was “−”, the “Antibiotic susceptibility (growth of BLA with antibiotic)” value [7] was “−” and the “Antibiotic susceptibility (growth of BLC with antibiotic)” value [3] was “−”. The “Antibiotic susceptibility (growth of BBA with antibiotic)” value [4] was “−”, the “Antibiotic susceptibility (growth of BBC2 with antibiotic)” value [5] was “−” and the “Antibiotic susceptibility (growth of BLB with antibiotic)” value [6] was “−”.

In the case of `[H]/N=C(/N)N[C@H]1[C@H](O)[C@@H](O)[C@H](O[C@@H]2O[C@@H](C)[C@](O)(C=O)[C@H]2O[C@@H]2O[C@@H](CO)[C@H](O)[C@@H](O)[C@@H]2NC)[C@@H](N/C(N)=N\[H])[C@@H]1O` [Streptomycin], the “Antibiotic susceptibility (growth of BBL with antibiotic)” value [1] is reported as “+++”, the “Antibiotic susceptibility (growth of BLD with antibiotic)” value [2] is reported as “−” and the “Antibiotic susceptibility (growth of BLA with antibiotic)” value [7] is reported as “−”. The “Antibiotic susceptibility (growth of BLC with antibiotic)” value [3] was “−”, the “Antibiotic susceptibility (growth of BLB with antibiotic)” value [6] was “−” and the “Antibiotic susceptibility (growth of BBB2 with antibiotic)” value [8] was “+++”.

In the case of `CN(C)[C@@H]1C(=O)C(C(N)=O)=C(O)[C@@]2(O)C(=O)C3=C(O)c4c(O)cccc4[C@@](C)(O)[C@H]3C[C@@H]12` [Tetracyclin, tetracycline], the “Antibiotic susceptibility (growth of BSS with antibiotic)” value (BSS (Streptococcus sp)) is reported as “−”, the “Antibiotic susceptibility (growth of BBL with antibiotic)” value [1] is reported as “−” and the “Antibiotic susceptibility (growth of BBC with antibiotic)” value (BBC (Bacillus cereus)) is reported as “−”. For the same compound, the “Antibiotic susceptibility (growth of BLD with antibiotic)” value [2] was “−”, the “Antibiotic susceptibility (growth of BLA with antibiotic)” value [7] was “−” and the “Antibiotic susceptibility (growth of BLC with antibiotic)” value [3] was “−”. The “Antibiotic susceptibility (growth of BBA with antibiotic)” value [4] was “−”, the “Antibiotic susceptibility (growth of BBC2 with antibiotic)” value [5] was “−” and the “Antibiotic susceptibility (growth of BLB with antibiotic)” value [6] was “−”.

For gentamycin, the “Antibiotic susceptibility (growth of BBL with antibiotic)” value [1] was “+++”, the “Antibiotic susceptibility (growth of BBC with antibiotic)” value (BBC (Bacillus cereus)) was “+++” and the “Antibiotic susceptibility (growth of BLD with antibiotic)” value [2] was “−”. The “Antibiotic susceptibility (growth of BLA with antibiotic)” value [7] was “−”, the “Antibiotic susceptibility (growth of BLC with antibiotic)” value [3] was “−” and the “Antibiotic susceptibility (growth of BBA with antibiotic)” value [4] was “+++”. The “Antibiotic susceptibility (growth of BBC2 with antibiotic)” value [5] was “+++” and the “Antibiotic susceptibility (growth of BLB with antibiotic)” value [6] was “−”.
